Reference: ChEMBL document CHEMBL5653631, “A Potent and Selective ULK1 Inhibitor Suppresses Autophagy and Sensitizes Cancer Cells to Nutrient Stress” (iScience, 2018)

Columns and labels:
[1] = target: T1, Tyrosine-protein kinase JAK3 (Homo sapiens) (UniProt P52333); experiment: Inhibition of human recombinant JAK3 at 500 nM in presence of ATP by radiometric assay relative to control
T1 sequence (whole entry): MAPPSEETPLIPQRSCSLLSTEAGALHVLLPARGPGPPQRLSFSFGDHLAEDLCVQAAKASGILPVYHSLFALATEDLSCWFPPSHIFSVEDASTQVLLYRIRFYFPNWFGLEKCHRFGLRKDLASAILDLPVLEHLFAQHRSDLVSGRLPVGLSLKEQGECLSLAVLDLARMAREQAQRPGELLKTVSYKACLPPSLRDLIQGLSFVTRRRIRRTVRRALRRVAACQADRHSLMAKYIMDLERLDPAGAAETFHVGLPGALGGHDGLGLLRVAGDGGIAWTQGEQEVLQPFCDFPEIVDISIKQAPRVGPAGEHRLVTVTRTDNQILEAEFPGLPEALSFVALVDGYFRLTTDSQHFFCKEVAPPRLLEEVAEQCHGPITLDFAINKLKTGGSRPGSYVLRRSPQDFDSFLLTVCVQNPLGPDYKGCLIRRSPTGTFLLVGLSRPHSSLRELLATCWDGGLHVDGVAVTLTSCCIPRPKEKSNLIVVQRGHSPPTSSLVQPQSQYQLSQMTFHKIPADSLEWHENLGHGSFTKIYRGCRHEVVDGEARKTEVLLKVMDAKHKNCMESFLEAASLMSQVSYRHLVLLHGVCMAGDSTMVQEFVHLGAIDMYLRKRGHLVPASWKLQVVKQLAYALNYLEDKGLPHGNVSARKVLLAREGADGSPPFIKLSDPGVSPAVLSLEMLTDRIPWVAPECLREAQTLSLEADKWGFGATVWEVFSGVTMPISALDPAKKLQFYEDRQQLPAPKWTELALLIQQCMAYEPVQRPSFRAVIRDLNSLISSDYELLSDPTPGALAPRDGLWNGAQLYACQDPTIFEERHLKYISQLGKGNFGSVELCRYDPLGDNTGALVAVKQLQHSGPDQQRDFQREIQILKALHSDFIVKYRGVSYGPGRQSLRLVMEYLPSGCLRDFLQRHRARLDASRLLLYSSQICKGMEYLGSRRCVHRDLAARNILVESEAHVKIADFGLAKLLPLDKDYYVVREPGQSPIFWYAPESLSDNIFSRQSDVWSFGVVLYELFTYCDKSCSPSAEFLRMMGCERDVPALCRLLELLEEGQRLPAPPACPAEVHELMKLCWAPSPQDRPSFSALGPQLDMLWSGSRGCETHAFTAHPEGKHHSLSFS

[2] = target: Tyrosine-protein kinase Fyn (Homo sapiens) (UniProt P06241); experiment: Inhibition of human recombinant FYN at 500 nM in presence of ATP by radiometric assay relative to control
Sequence of Tyrosine-protein kinase Fyn (Homo sapiens) (P06241 2-537 limits assumed): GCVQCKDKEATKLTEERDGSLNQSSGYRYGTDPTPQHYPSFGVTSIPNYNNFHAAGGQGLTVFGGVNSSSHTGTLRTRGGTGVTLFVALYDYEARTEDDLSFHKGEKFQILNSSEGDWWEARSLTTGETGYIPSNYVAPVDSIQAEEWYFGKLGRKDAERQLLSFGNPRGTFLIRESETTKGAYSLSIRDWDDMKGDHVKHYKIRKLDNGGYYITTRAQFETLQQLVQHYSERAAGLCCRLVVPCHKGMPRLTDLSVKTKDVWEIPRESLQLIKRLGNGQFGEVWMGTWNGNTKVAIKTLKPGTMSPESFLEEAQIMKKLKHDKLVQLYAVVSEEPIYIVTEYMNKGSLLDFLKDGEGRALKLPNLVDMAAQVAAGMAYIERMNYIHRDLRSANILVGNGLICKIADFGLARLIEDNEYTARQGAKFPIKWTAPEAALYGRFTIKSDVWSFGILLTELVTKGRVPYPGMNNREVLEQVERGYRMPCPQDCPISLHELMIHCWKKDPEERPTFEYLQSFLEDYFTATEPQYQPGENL

[3] = target: Cyclin-dependent kinase 3 (Homo sapiens) (UniProt Q00526); experiment: Inhibition of human recombinant CDK3 at 500 nM in presence of ATP by radiometric assay relative to control
Sequence of Cyclin-dependent kinase 3 (Homo sapiens) (Q00526 whole entry, looked up): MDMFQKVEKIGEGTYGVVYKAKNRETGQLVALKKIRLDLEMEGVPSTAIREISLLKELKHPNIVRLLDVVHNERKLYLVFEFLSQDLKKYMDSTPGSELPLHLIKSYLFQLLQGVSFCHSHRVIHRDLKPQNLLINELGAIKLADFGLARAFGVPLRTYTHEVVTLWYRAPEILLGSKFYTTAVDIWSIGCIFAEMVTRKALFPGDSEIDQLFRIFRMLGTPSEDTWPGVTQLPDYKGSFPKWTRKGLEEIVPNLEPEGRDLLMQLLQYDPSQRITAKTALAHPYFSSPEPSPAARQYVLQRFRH

[4] = target: TRAF2 and NCK-interacting protein kinase (Homo sapiens) (UniProt Q9UKE5); experiment: Inhibition of human recombinant TNIK at 15 nM related to control ULK1
Sequence of TRAF2 and NCK-interacting protein kinase (Homo sapiens) (Q9UKE5 whole entry, looked up): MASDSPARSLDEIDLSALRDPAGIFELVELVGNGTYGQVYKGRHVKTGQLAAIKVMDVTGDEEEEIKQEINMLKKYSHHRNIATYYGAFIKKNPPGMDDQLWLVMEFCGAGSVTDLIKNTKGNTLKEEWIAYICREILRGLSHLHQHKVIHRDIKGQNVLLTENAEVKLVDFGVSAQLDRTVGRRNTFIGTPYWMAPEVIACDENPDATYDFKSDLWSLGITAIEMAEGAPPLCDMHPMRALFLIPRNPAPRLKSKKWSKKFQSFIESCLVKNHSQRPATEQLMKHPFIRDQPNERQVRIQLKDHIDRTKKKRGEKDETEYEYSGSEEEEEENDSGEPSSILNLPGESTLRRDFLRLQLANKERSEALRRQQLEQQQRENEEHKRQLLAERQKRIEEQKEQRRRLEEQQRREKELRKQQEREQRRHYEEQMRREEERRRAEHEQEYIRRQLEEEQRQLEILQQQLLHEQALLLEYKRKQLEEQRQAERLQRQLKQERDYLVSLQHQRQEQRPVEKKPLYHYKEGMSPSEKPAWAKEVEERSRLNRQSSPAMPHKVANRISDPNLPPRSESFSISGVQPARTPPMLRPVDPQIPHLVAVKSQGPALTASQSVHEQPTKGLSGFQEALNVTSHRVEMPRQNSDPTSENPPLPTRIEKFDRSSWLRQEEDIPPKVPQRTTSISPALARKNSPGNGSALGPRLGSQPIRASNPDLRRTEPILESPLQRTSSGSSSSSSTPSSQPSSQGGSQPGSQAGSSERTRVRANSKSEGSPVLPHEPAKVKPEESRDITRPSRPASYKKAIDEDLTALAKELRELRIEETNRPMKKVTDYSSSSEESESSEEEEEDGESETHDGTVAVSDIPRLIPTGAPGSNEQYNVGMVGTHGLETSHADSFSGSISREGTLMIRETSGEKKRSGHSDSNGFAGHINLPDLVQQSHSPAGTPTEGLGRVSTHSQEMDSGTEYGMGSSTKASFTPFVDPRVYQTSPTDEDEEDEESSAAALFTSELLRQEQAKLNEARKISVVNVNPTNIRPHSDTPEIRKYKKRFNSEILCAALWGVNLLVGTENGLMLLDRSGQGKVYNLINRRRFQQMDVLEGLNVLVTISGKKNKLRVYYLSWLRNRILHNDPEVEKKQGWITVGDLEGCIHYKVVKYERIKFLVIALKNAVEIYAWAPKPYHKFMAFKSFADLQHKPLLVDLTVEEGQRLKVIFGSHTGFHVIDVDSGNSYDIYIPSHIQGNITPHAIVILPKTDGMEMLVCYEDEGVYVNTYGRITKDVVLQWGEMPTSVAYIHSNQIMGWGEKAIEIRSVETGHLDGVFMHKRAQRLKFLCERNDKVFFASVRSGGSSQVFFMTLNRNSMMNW

[5] = target: T2, Beta-adrenergic receptor kinase 1 (Homo sapiens) (UniProt P25098); experiment: Inhibition of human recombinant BARK1 at 15 nM related to control ULK1
T2 sequence (whole entry): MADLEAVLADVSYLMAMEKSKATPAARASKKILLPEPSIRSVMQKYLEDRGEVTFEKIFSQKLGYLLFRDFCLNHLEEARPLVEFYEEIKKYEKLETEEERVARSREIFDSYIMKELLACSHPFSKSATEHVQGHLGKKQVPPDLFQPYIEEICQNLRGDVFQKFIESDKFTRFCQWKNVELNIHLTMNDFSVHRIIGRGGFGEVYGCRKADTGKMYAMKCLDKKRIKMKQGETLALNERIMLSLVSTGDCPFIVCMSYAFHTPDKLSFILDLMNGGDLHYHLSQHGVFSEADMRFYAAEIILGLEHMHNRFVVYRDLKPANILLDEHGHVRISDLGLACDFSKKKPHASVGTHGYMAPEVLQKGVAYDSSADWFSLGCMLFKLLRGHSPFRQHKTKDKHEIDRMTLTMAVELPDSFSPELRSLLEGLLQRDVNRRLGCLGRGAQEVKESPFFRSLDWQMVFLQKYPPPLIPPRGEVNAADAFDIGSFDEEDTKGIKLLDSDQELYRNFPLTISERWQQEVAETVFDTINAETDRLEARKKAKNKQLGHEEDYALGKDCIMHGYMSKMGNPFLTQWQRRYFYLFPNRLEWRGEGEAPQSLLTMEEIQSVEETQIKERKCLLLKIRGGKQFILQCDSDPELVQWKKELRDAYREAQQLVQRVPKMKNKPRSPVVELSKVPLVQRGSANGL

[6] = target: Serine/threonine-protein kinase Nek7 (Homo sapiens) (UniProt Q8TDX7); experiment: Inhibition of human recombinant NEK7 at 40 nM related to control ULK1
Sequence of Serine/threonine-protein kinase Nek7 (Homo sapiens) (Q8TDX7 whole entry, looked up): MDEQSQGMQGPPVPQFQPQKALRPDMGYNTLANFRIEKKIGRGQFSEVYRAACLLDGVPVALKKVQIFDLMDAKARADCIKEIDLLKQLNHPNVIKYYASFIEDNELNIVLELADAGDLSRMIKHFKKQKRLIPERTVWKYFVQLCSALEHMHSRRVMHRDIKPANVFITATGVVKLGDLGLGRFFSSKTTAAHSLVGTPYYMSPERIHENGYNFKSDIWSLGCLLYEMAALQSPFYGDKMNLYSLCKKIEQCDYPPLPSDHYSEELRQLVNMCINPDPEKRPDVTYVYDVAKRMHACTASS

[7] = target: T3, Mitogen-activated protein kinase 12 (Homo sapiens) (UniProt P53778); experiment: Inhibition of human recombinant p38gamma at 40 nM related to control ULK1
T3 sequence (whole entry): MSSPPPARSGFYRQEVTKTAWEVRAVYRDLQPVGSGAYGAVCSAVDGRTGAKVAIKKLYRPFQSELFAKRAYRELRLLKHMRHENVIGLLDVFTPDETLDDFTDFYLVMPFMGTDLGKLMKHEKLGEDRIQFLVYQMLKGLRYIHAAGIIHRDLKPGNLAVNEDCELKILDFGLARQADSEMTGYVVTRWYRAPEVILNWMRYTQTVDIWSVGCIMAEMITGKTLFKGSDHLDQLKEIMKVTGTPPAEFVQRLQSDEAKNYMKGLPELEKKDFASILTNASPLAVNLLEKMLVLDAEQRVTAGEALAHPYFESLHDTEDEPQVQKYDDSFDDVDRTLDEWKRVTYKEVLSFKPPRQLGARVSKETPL

## CNC(=O)c1ccccc1Oc1nc(Nc2cc(OC)c(OC)c(OC)c2)ncc1Br
[1]
  inhibition: 21%
[2]
  inhibition: 19%
[3]
  inhibition: 1%

## CC(C)[C@H](NC(=O)c1cc(-c2cnn3cc(-c4ccc(OCCN5CCCCC5)cc4)cnc23)cs1)C(F)(F)F
[4]
  fold change (FC): 0.06
[5]
  fold change (FC): 0

## O=C(N[C@@H](C1CC1)C(F)(F)F)c1cc(-c2cnn3cc(-c4ccc(F)cc4)cnc23)cs1
[6]
  fold change (FC): 0
[7]
  fold change (FC): 0
